The source of these data is patent US20240287124A1, “PRODRUGS OF 4'-SUBSTITUTED NUCLEOSIDE REVERSE TRANSCRIPTASE INHIBITORS” (Merck Sharp & Dohme LLC, priority 2023, published 2024).

The term solubility denotes the dissolved amount per volume that the medium holds. What is called IC50 is the concentration needed to halve the response being measured.

Series [1] can be described thus: Aqueous solubility in PBS, pH 7.4. It counts as physicochemical. The note with it: pH 7.4, aqueous buffer, thermodynamic from solid, pH 7.4 phosphate buffered saline, 24 hours, amorphous or crystalline material, read-out: Aqu. Solubility. A digest of the protocol:
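Excess solid suspended at 0.5 mg/mL in PBS pH 7.4 and stirred 24 hours. Filtrate (0.45 μm) diluted 1:1 with ACN:H2O and quantified by UPLC against a standard curve; residual solid phase checked by XRPD and PLM.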

The test system of series [2] is HIV-1 wild-type (R8) virus. The experiment in a line: Viral KINetics in Green cells (VIKING) assay, HIV-1 replication in MT4-GFP reporter cells. The format is cell-based. The note with it: Human immunodeficiency virus 1, 10% normal human serum, MT4-GFP cells, HIV-1 wild-type (R8); read-out: Viking (10% NHS), IC50. A digest of the protocol: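 MT4-GFP cells infected overnight with HIV-1 R8 at MOI ~0.01, then added to compound plates in RPMI with 10% normal human serum; 10-point 3-fold dilutions (typically 4 μM-0.2 nM). Green cells counted at ~48 h and 72 h; reproductive ratio (72 h/48 h) gave % inhibition, IC50 by 4-parameter fit.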

The nature of series [3]: Plasma stability in frozen human plasma. The note with it: frozen human plasma at 37° C., 0-3 hr; read-out: T1/2 Human Plasma (converted). The format is in vitro ADME. As to the method:
Plasma stability of the compounds was evaluated in frozen human plasma at 37° C. in a 10% CO2 environment. The stability of the analyte was assessed by determining the percentage of drug loss over the course of 0, 0.25, 0.5, 1, and 3 hr. In addition, the appearance of Compound A was determined for the same time course. Percent of drug loss as based on ratio with internal standard. Analyte concentrations were measured by LC/MS/MS. Linear regression was performed with log transformed percent of average TO values and linear time values. The elimination rate constant (ke) was calculated from the slope of this regression line and the half-life (T½) calculated based on the elimination rate constant.

≈ marks a conversion by molar mass, not a printed value. Where two headings read alike, the source gives them in different places.

Take `C#C[C@]1(CO)O[C@@H](n2ccc3c(N)nc(Cl)nc32)C[C@@H]1OC(=O)OC(C)C` [Example 1, (2R,3S,5R)-5-(4-amino-2-chloro-7H-pyrrolo[2,3-d]pyrimidin-7-yl)-2-ethynyl-2-(hydroxymethyl)tetrahydrofuran-3-yl isopropyl carbonate]: the solubility at 24 h in series [1] (phosphate buffered saline) was 42 µg/mL (≈ 106 µM). The IC50 in series [2] was 0.074 µM. Moreover, the half-life in series [3] was 19.1 h.

On to `C#C[C@]1(CO)O[C@@H](n2ccc3c(N)nc(Cl)nc32)C[C@@H]1OC(=O)C(C)C` [Example 2, (2R,3S,5R)-5-(4-amino-2-chloro-7H-pyrrolo[2,3-d]pyrimidin-7-yl)-2-ethynyl-2-(hydroxymethyl)tetrahydrofuran-3-yl isobutyrate], for which the solubility at 24 h in series [1] (phosphate buffered saline) was 136 µg/mL (≈ 359 µM). Further, the IC50 in series [2] was 0.041 µM. Also, the half-life in series [3] was 48.4 h.

For the compound `C#C[C@]1(CO)O[C@@H](n2ccc3c(N)nc(Cl)nc32)C[C@@H]1OC(=O)CCCC` [Example 3, (2R,3S,5R)-5-(4-amino-2-chloro-7H-pyrrolo[2,3-d]pyrimidin-7-yl)-2-ethynyl-2-(hydroxymethyl)tetrahydrofuran-3-yl pentanoate], the solubility at 24 h in series [1] (phosphate buffered saline) is 27 µg/mL (≈ 68.7 µM). Also, the IC50 in series [2] was found to be 0.0037 µM. Besides, the half-life in series [3] was 16.7 h.

Regarding `C#C[C@]1(CO)O[C@@H](n2ccc3c(N)nc(Cl)nc32)C[C@@H]1OC(=O)c1ccccc1` [Example 5, (2R,3S,5R)-5-(4-amino-2-chloro-7H-pyrrolo[2,3-d]pyrimidin-7-yl)-2-ethynyl-2-(hydroxymethyl)tetrahydrofuran-3-yl benzoate], in series [1] (phosphate buffered saline), the solubility at 24 h was less than 1 µg/mL. Also, the IC50 in series [2] was determined as 0.035 µM. The half-life in series [3] is 57.7 h.

Consider `C#C[C@]1(COC(=O)c2ccccc2)O[C@@H](n2ccc3c(N)nc(Cl)nc32)C[C@@H]1OC(=O)c1ccccc1` [Example 6, (2R,3S,5R)-5-(4-amino-2-chloro-7H-pyrrolo[2,3-d]pyrimidin-7-yl)-2-((benzoyloxy)methyl)-2-ethynyltetrahydrofuran-3-yl benzoate], for which the solubility at 24 h in series [1] (phosphate buffered saline) is less than 1 µg/mL. Besides, the IC50 in series [2] was 0.044 µM. The half-life in series [3] was 1.1 h.

On to `C#C[C@]1(COC(=O)CCCC)O[C@@H](n2ccc3c(N)nc(Cl)nc32)C[C@@H]1OC(=O)CCCC` [Example 7, (2R,3S,5R)-5-(4-amino-2-chloro-7H-pyrrolo[2,3-d]pyrimidin-7-yl)-2-ethynyl-2-((pentanoyloxy)methyl)tetrahydrofuran-3-yl pentanoate], for which the solubility at 24 h in series [1] (phosphate buffered saline) is less than 1 µg/mL. For the same compound, in series [2], the IC50 was determined as 0.0029 µM. The half-life in series [3] is 0.036 h.

`C#C[C@]1(CO[P@@](=O)(N[C@@H](C)C(=O)OC(C)C)Oc2ccccc2)O[C@@H](n2ccc3c(N)nc(Cl)nc32)C[C@@H]1O` [Example 8, Isopropyl ((S)-(((2R,3S,5R)-5-(4-amino-2-chloro-7H-pyrrolo[2,3-d]pyrimidin-7-yl)-2-ethynyl-3-hydroxytetrahydrofuran-2-yl)methoxy)(phenoxy)phosphoryl)-L-alaninate]: the solubility at 24 h in series [1] turned out to be 304 µg/mL (≈ 526 µM). In series [2], the IC50 was 0.042 µM. The half-life in series [3] is 13.3 h.

For the compound `C#C[C@]1(COC(=O)c2ccccc2)O[C@@H](n2ccc3c(N)nc(Cl)nc32)C[C@@H]1O` [Example 9, ((2R,3S,5R)-5-(4-amino-2-chloro-7H-pyrrolo[2,3-d]pyrimidin-7-yl)-2-ethynyl-3-hydroxytetrahydrofuran-2-yl)methyl benzoate], in series [1] (phosphate buffered saline), the solubility at 24 h was 182 µg/mL (≈ 441 µM). Besides, the IC50 in series [2] amounted to 0.0028 µM. Besides, the half-life in series [3] was 0.026 h.

For the compound `C#C[C@]1(COC(=O)C(C)C)O[C@@H](n2ccc3c(N)nc(Cl)nc32)C[C@@H]1O` [Example 11, ((2R,3S,5R)-5-(4-amino-2-chloro-7H-pyrrolo[2,3-d]pyrimidin-7-yl)-2-ethynyl-3-hydroxytetrahydrofuran-2-yl)methyl isobutyrate], in series [1] (phosphate buffered saline), the solubility at 24 h was found to be 285 µg/mL (≈ 752 µM). Besides, the IC50 in series [2] is 0.0019 µM. Besides, the half-life in series [3] was 0.042 h.

Take `C#C[C@]1(CO)O[C@@H](n2ccc3c(N)nc(Cl)nc32)C[C@@H]1OC(=O)Oc1ccccc1` [Example 12, (2R,3S,5R)-5-(4-amino-2-chloro-7H-pyrrolo[2,3-d]pyrimidin-7-yl)-2-ethynyl-2-(hydroxymethyl)tetrahydrofuran-3-yl phenyl carbonate]: in series [1] (phosphate buffered saline), the solubility at 24 h was 2.9 µg/mL (≈ 6.76 µM). The IC50 in series [2] is 0.0029 µM. In addition, in series [3], the half-life is 0.41 h.

Regarding `C#C[C@]1(COC(=O)OCCCCC)O[C@@H](n2ccc3c(N)nc(Cl)nc32)C[C@@H]1O` [Example 14, ((2R,3S,5R)-5-(4-amino-2-chloro-7H-pyrrolo[2,3-d]pyrimidin-7-yl)-2-ethynyl-3-hydroxytetrahydrofuran-2-yl)methyl pentyl carbonate], the solubility at 24 h in series [1] (phosphate buffered saline) was 113 µg/mL (≈ 267 µM). For the same compound, the IC50 in series [2] was determined as 0.0025 µM. In series [3], the half-life was less than 0.25 h.

`C#C[C@]1(COC(=O)CCCC)O[C@@H](n2ccc3c(N)nc(Cl)nc32)C[C@@H]1O` [Example 15, ((2R,3S,5R)-5-(4-amino-2-chloro-7H-pyrrolo[2,3-d]pyrimidin-7-yl)-2-ethynyl-3-hydroxytetrahydrofuran-2-yl)methyl pentanoate]: the solubility at 24 h in series [1] (phosphate buffered saline) was found to be 55 µg/mL (≈ 140 µM). For the same compound, in series [2], the IC50 turned out to be 0.0023 µM. Further, the half-life in series [3] was less than 0.25 h.

For `C#C[C@]1(COC(=O)OC(C)C)O[C@@H](n2ccc3c(N)nc(Cl)nc32)C[C@@H]1O` [Example 23, ((2R,3S,5R)-5-(4-amino-2-chloro-7H-pyrrolo[2,3-d]pyrimidin-7-yl)-2-ethynyl-3-hydroxytetrahydrofuran-2-yl)methyl isopropyl carbonate], the solubility at 24 h in series [1] (phosphate buffered saline) amounted to 351 µg/mL (≈ 889 µM). Moreover, the IC50 in series [2] worked out at 0.0022 µM. Also, the half-life in series [3] is 0.028 h.

Take `C#C[C@]1(COC(=O)C(CC)CC)O[C@@H](n2ccc3c(N)nc(Cl)nc32)C[C@@H]1O` [Example 40, ((2R,3S,5R)-5-(4-amino-2-chloro-7H-pyrrolo[2,3-d]pyrimidin-7-yl)-2-ethynyl-3-hydroxytetrahydrofuran-2-yl)methyl 2-ethylbutanoate]: the solubility at 24 h in series [1] (phosphate buffered saline) is 282 µg/mL (≈ 693 µM). Besides, the IC50 in series [2] amounted to 0.0055 µM. For the same compound, the half-life in series [3] was 1.9 h.

Consider `C#C[C@]1(COC(=O)C(C)C)O[C@@H](n2ccc3c(N)nc(Cl)nc32)C[C@@H]1OC(=O)C(C)C` [Example 42, (2R,3S,5R)-5-(4-amino-2-chloro-7H-pyrrolo[2,3-d]pyrimidin-7-yl)-2-ethynyl-2-((isobutyryloxy)methyl)tetrahydrofuran-3-yl isobutyrate], for which, in series [1] (phosphate buffered saline), the solubility at 24 h was less than 1 µg/mL. Further, the IC50 in series [2] stood at 0.0109 µM. Moreover, the half-life in series [3] is less than 0.25 h.

Consider `C#C[C@]1(COC(=O)C(CC)CC)O[C@@H](n2ccc3c(N)nc(Cl)nc32)C[C@@H]1OC(=O)C(CC)CC` [Example 44, (2R,3S,5R)-5-(4-amino-2-chloro-7H-pyrrolo[2,3-d]pyrimidin-7-yl)-2-(((2-ethylbutanoyl)oxy)methyl)-2-ethynyltetrahydrofuran-3-yl 2-ethylbutanoate], for which, in series [1] (phosphate buffered saline), the solubility at 24 h is less than 1 µg/mL. The IC50 in series [2] worked out at 0.351 µM. Also, in series [3], the half-life is 2.2 h.

Turning to `C#C[C@]1(CO)O[C@@H](n2ccc3c(N)nc(Cl)nc32)C[C@@H]1OC(=O)C(CC)CC` [Example 45, (2R,3S,5R)-5-(4-amino-2-chloro-7H-pyrrolo[2,3-d]pyrimidin-7-yl)-2-ethynyl-2-(hydroxymethyl)tetrahydrofuran-3-yl 2-ethylbutanoate], the solubility at 24 h in series [1] (phosphate buffered saline) worked out at 45 µg/mL (≈ 111 µM). Besides, the IC50 in series [2] turned out to be 0.143 µM. In series [3], the half-life was 19.4 h.

As to `C#C[C@]1(COC(=O)OCCCC)O[C@@H](n2ccc3c(N)nc(Cl)nc32)C[C@@H]1OC(=O)OCC` [Example 216], the solubility at 24 h in series [1] (phosphate buffered saline) is less than 1 µg/mL. Moreover, the IC50 in series [2] stood at 0.021 µM.

As for `C#C[C@]1(COC(=O)OCc2cc[nH]c(=O)c2)O[C@@H](n2ccc3c(N)nc(Cl)nc32)C[C@@H]1OC(=O)OCc1cc[nH]c(=O)c1` [Example 225], in series [1] (phosphate buffered saline), the solubility at 24 h is 70 µg/mL (≈ 115 µM). Also, the IC50 in series [2] was 0.013 µM.

With `C#C[C@]1(COC(=O)OCc2ccn(C)c(=O)c2)O[C@@H](n2ccc3c(N)nc(Cl)nc32)C[C@@H]1OC(=O)OCc1ccn(C)c(=O)c1` [Example 226], the solubility at 24 h in series [1] (phosphate buffered saline) was 19 µg/mL (≈ 29.7 µM). In addition, the 50% inhibitory concentration (IC50) in series [2] was determined as 0.013 µM.

In the case of `C#C[C@]1(COC(=O)Cc2ccc(Br)cc2)O[C@@H](n2ccc3c(N)nc(Cl)nc32)C[C@@H]1OC(=O)Cc1ccc(Br)cc1` [Example 227], the solubility at 24 h in series [1] (phosphate buffered saline) was less than 1 µg/mL. Also, the IC50 in series [2] turned out to be 0.012 µM.
